Here are results for two molecules from ChEMBL document CHEMBL4665775, “Half-life extension of peptidic APJ agonists by N-terminal lipid conjugation” (Bioorg Med Chem Lett, 2020).

Data set [1] is described as follows: Unbound Cmax in rat at 0.5 mg/kg, sc at 15 mins. The data set is classed as ADME, organism-based. Conditions: in vivo, 0.25 h.
Data set [2] can be described thus: Terminal half life in rat at 0.1 mg/kg, iv for 30 mins. The class given is ADME, organism-based. Conditions: in vivo, read-out: beta t1/2.
For data set [3], the system named is Rattus norvegicus. Description: Positive […] activity in anesthetized Lewis rat model of myocardial infarction assessed as increase in ejection fraction at 3.7 ug/kg/min, iv administered as infusion for 30 mins. The class given is functional, organism-based. Conditions: dose 3.7 µg/kg/min.
Data set [4] has as its system Rattus norvegicus. Description: Agonist activity at APJ receptor in anesthetized Lewis rat model of myocardial infarction assessed as target coverage at 3.7 ug/kg/min, iv administered as continuous infusion for 30 mins. The data set is classed as functional, organism-based. The note with it: dose 3.7 µg/kg/min.
A short description of data set [5]: Agonist activity at APJ receptor in anesthetized Lewis rat model of myocardial infarction assessed as target coverage at 30 ug/kg/min iv administered as continuous infusion for 30 mins relative to control. The data set is classed as functional. Conditions: dose 30 µg/kg/min, 0.5 h.
Data set [6] can be described thus: Agonist activity at APJ receptor in anesthetized Lewis rat model of myocardial infarction assessed as target coverage at 10 ug/kg/min iv administered as continuous infusion for 30 mins relative to control. The class given is functional. The note with it: dose 10 µg/kg/min, 0.5 h.
Data set [7] can be described thus: Unbound fraction in anesthetized Lewis rat myocardial infarction model plasma assessed as free plasma concentration at 30 ug/kg/min, iv administered as continuous infusion for 30 mins. The note with it: in vivo, 0.03 mg/kg, 0.5 h, dose 30 µg/kg/min. The class given is ADME, organism-based.
The nature of data set [8]: Unbound fraction in anesthetized Lewis rat myocardial infarction model plasma assessed as free plasma concentration at 10 ug/kg/min, iv administered as continuous infusion for 30 mins. The data set is classed as ADME, organism-based. The note with it: in vivo, 0.01 mg/kg, 0.5 h, dose 10 µg/kg/min.
The nature of data set [9]: Unbound fraction in anesthetized Lewis rat myocardial infarction model plasma assessed as free plasma concentration at 3.7 ug/kg/min, iv administered as continuous infusion for 30 mins. The data set is classed as ADME, organism-based. Conditions: in vivo, 0.0037 mg/kg, 0.5 h, dose 3.7 µg/kg/min.
For data set [10], the system named is Rattus norvegicus. Briefly: Positive […] activity in anesthetized Lewis rat model of myocardial infarction assessed as increase in ejection fraction at 30 ug/kg/min, iv administered as infusion for 30 mins. The class given is functional. Conditions: dose 30 µg/kg/min, 0.5 h.
The subject of data set [11] is Rattus norvegicus. Briefly: Positive […] activity in anesthetized Lewis rat model of myocardial infarction assessed as increase in ejection fraction at 10 ug/kg/min, iv administered as continuous infusion for 30 mins. Conditions: dose 10 µg/kg/min, 0.5 h. The class given is functional.
Another data set concerns the target T1, Apelin receptor (Rattus norvegicus, UniProt Q9JHG3).
T1 sequence (Q9JHG3 whole entry): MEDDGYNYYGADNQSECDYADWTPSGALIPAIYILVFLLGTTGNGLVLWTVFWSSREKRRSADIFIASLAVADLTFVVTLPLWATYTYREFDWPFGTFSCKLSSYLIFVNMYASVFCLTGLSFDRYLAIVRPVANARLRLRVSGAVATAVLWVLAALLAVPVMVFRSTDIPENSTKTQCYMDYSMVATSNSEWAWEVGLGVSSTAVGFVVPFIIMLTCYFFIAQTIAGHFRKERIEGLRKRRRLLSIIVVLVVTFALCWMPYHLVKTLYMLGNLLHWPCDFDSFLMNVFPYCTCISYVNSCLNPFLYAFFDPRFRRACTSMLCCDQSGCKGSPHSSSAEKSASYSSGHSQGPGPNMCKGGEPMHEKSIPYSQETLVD
Description: Agonist activity at rat APJ receptor stably expressed in CHO cell membranes in presence of [35S]GTPgammaS by scintillation proximity assay. The class given is functional.

Data set [12] in a line: Stability in rat plasma assessed as compound remaining at 4 hrs. The note with it: read-out: Stabilty. The class given is ADME, cell-free.
A short description of data set [13]: Stability in rat liver S9 fraction assessed as compound remaining at 4 hrs. The class given is ADME, subcellular. Conditions: read-out: Stabilty.
A short description of data set [14]: Stability in rat Kidney S9 fraction assessed as compound remaining at 4 hrs. The data set is classed as ADME, subcellular. The note with it: read-out: Stabilty.
The nature of data set [15]: Plasma protein binding in rat assessed as unbound fraction by LC-MS/MS analysis. The class given is ADME, cell-free.
Data set [16] concerns Rattus norvegicus. Description: Positive […] activity in anesthetized Lewis rat model of myocardial infarction assessed as plasma concentration for maximal pharmacodynamic effect at 1 mg/kg/min, iv administered as continuous infusion for 20 mins. The class given is functional.
In data set [17] the test system is Rattus norvegicus. Description: Positive […] activity in anesthetized Lewis rat model of myocardial infarction assessed as increase in ejection fraction at 1 mg/kg/min, iv administered as continuous infusion for 20 mins. The data set is classed as functional.

The source made the active and inactive calls. No cut-off for these calls is given here.

As for `CCCCCCCCCCCCC(=O)N[C@@H](CCC(=O)NCCOCCOCC(=O)NCCOCCOCC(=O)N[C@@H](CCC(N)=O)C(=O)N[C@@H](CCCNC(=N)N)C(=O)N1CCC[C@H]1C(=O)N[C@@H](CCCNC(=N)N)C(=O)N[C@@H](CC(C)C)C(=O)N[C@@H](CO)C(=O)N[C@@H](Cc1c[nH]cn1)C(=O)N[C@@H](CCCCN)C(=O)NCC(=O)N1CCC[C@H]1C(=O)N[C@@H](CCSC)C(=O)N1CCC[C@H]1C(=O)N[C@@H](Cc1ccccc1)C(=O)O)C(=O)O`, the fCmax in data set [1] was determined as 0.3 nM. For the same molecule, the half-life in data set [2] came out at 4.3 min. Besides, the result with Rattus norvegicus [3] and in the data set with Rattus norvegicus [4] was inactive. In addition, the “fold change (FC)” value in data set [5] was determined as 6.3; in [6], 2.7. The “Cp(f)” value in data set [7] is 29 nM; in data set [8], 12 nM; in [9], 3 nM. Besides, the Activity in the data set with Rattus norvegicus [10] turned out to be 6.1%; in the data set on Rattus norvegicus [11], 22.8%. Also, the EC50 at Apelin receptor amounted to 4.6 nM. Further, the remaining at 4 h in [12] was 51%; in [13] it was more than 90%; in data set [14], 82%. The fraction unbound in data set [15] is 0.011.
For the molecule `CSCC[C@H](NC(=O)[C@@H]1CCCN1C(=O)CNC(=O)[C@H](CCCCN)NC(=O)[C@H](Cc1cnc[nH]1)NC(=O)[C@H](CO)NC(=O)[C@H](CC(C)C)NC(=O)[C@H](CCCNC(=N)N)NC(=O)[C@@H]1CCCN1C(=O)[C@H](CCCNC(=N)N)NC(=O)[C@@H]1CCC(=O)N1)C(=O)N1CCC[C@H]1C(=O)N[C@@H](Cc1ccccc1)C(=O)O`, in the data set with Rattus norvegicus [16], the MPE was 16.4 µM. Also, the Activity in the data set with Rattus norvegicus [17] was found to be 16.6%.
